Literature values in patent US7705000B2, “Oral suspension comprising meloxicam” (Janssen Pharmaceutica N.V., priority 2004, dated 2010).

Details: at a pH of 4

solubility of meloxicam: 0.5 µg/mL
SMILES: Cc1cnc(NC(=O)C2=C(O)c3ccccc3S(=O)(=O)N2C)s1 [meloxicam, 4-hydroxy-2-methyl-N-(5-methyl-2-thiazolyl)-2H-1,2-benzo-thiazine-3-carboxamide-1,1-dioxide]
